Like-named read-outs stand apart in the source and are kept apart here.
Columns and labels:
uninfected RBCs [1] = tested on: uninfected RBCs
Source text: (§3) We analyzed samples using a volumetric MACSQuant Analyzer Flow Cytometer (Miltenyi Biotec), manually resuspending each row immediately prior to sample uptake. We recorded 10,000 total events for each condition at the instrument-defined low flow rate. We assessed all compounds in 2 separate experiments with blood from different donors. […] All samples were gated for single cell events.

[2] = tested on: BdC9 line of B. divergens; test: Inhibitor susceptibility dose-response assay (SYBR-Green I), B. divergens; format: cell-based, Babesia divergens; conditions: for IC50: read-out: IC50 (S.D.), B. divergens; for fold lower IC50s against B. divergens than the Plasmodium spp.: B. divergens vs Plasmodium spp.
Experimental: (§1) The P. falciparum strains 3D7 and Dd2 were obtained from the Walter and Eliza Hall Institute (Melbourne, Australia) and the Malaria Research and Reference Reagent Resource, respectively. […] B. divergens parasites were maintained and assayed in mixed stages without synchronization.
(§2) Ring-stage P. falciparum (1%-parasitemia starting, 1%-hematocrit) and asynchronous B.divergens (0.5%-parasitemia starting, 3%-hematocrit) were incubated with plated compounds for 72h, and ring-stage P. knowlesi (1%-parasitemia starting, 1%-hematocrit) for 48h, before lysis and staining with dye. To quantify the species-specificity of the inhibitors, we divided the range of IC50s across the 4 test lines by the average IC50 across the same lines: inhibitors with increased scores show species-specific activity and reduced scores indicate broad-spectrum, pan-species activity.

P. falciparum strain 3D7 = test: Inhibitor susceptibility dose-response assay (SYBR-Green I), P. falciparum 3D7; format: cell-based, Plasmodium falciparum; conditions: read-out: IC50 (S.D.), P. falciparum-3D7
Experimental: as §1, §2

P. knowlesi YH1 strain = test: microbe, parasite or virus in culture; format: cell-based, Plasmodium knowlesi; conditions: read-out: IC50 (S.D.), P. knowlesi
Experimental: as §1, §2

AQP3 = tested on: AQP3; parameters: method as in PMID 22624030; conditions: RBC assay: AQP3 glycerol conductance ref PMID 22624030; read-out: Micromolar IC50 (RBC), AQP3 glycerol conductance; cited from earlier work
P. falciparum strain Dd2 = test: Inhibitor susceptibility dose-response assay (SYBR-Green I), P. falciparum Dd2; format: cell-based, Plasmodium falciparum; conditions: read-out: IC50 (S.D.), P. falciparum-Dd2
Experimental: as §1, §2

uninfected RBCs [3] = test: Cellular phosphatidylserine exposure assay (annexin V flow cytometry);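 note: flow cytometry recording 10,000 events per condition, gated on single cells, with the two experiments using blood from separate donors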
Source text: as §3

[4] = tested on: AP-1 transcription factor activation; parameters: method as in PMID 17175522; conditions: ref PMID 17175522; read-out: Micromolar IC50 (AP-1 transcription factor activation); cited from earlier work
in vitro = conditions: human
Source text: as §3

sickle RBCs = tested on: sickle RBCs; parameters: method as in PMID 33208899; conditions: RBC assay: PS exposure in sickle RBCs ref PMID 33208899; read-out: Micromolar IC50 (RBC), PS exposure in sickle RBCs; cited from earlier work
P. falciparum (3D7) = test: Assay for inhibition of parasite proliferation via RBC-targeting (transient exposure of RBCs, wash, then infection); format: cell-based, Plasmodium falciparum; conditions: for antimalarial activity retained after transient exposure of RBCs, relative to continuous exposure to inhibitor: 5x P. falciparum 3D7-IC50, RBC preincubation 4-5 hours then washed, 100% = inhibition with continuous exposure, P<0.01; for inhibitory activity following transient exposure of RBCs, in words: transient vs continued exposure, dose-response format where stated, n=3
Experimental: All plates were frozen for storage before assay. For assay, duplicate plates were preincubated with donor O+ RBCs at 2% hematocrit at 37°C in 50µL for 4-5 hours. Following preincubation, one but not the other plate in each pair was washed 4X in complete RPMI to dilute inhibitor. We transferred RBCs from both washed and unwashed plates to black, clear bottom 96-well plates (Corning Cat. No. 3904) and supplemented these suspensions with MACS-purified P. falciparum (3D7) schizonts for a starting parasitemia of 0.1% - 0.25% at 1% hematocrit. Following 72h incubation in standard culture conditions, samples were processed for SYBR-Green I signal ([Mandt et al., 2019]). […] To identify host-targeting compounds, we compared DMSO-treated to inhibitor-treated samples (Students t-test, paired). We carried out the assay with 1 µM mefloquine (Sigma-Aldrich Cat. No. M2319) as a control for reversible inhibition. All assays were conducted in biological triplicate, with each experiment utilizing different donor RBCs. For select compounds, we carried out this same assay in a dose-response series (n=3 experiments). Following normalization to DMSO-controls, we assessed inhibitor activity following transient exposure of RBCs by Two-Way ANOVA tests for repeated measures (Graphpad Prism v9): high P values indicate support for the null hypothesis that dose-dependent inhibition is not modulated by dilution after exposure, consistent with a direct inhibitory effect of the compounds on RBCs persisting after transient exposure.

RBC = conditions: read-out: Micromolar IC50 (RBC), PS exposure, cited from earlier work
human epithelial cells = tested on: human epithelial cells; parameters: method as in PMID 17145850; conditions: cellular proliferation ref PMID 17145850; read-out: Micromolar IC50 (human epithelial cells); cited from earlier work
[5] = tested on: alloresponsive T cell proliferation; parameters: method as in PMID 24131367; conditions: ref PMID 24131367; read-out: Micromolar IC50 (alloresponsive T cell proliferation); cited from earlier work
[6] = target: ELK1-luciferase assay, HeLa; conditions: read-out: Micromolar IC50 (ELK1-luciferase assay, HeLa); ref PMID 15225706; cited from earlier work
HCT-116 = conditions: read-out: Micromolar IC50 (anchorage formation, HCT-116); ref PMID 15225706; cited from earlier work
[7] = 72h, ring-stage, n=3 experiments (or 2 where indicated with *)
[8] = uninfected RBCs (red blood cells), 1% hematocrit
[9] = Plasmodium falciparum, 3D7, 72 h
[10] = Plasmodium falciparum, DD2, 72 h
[11] = 24h, 5x P. falciparum 3D7-IC50, % of RBCs, mean of 2 experiments
[12] = 48h, 5x P. falciparum 3D7-IC50, % of RBCs, mean of 2 experiments
[13] = 72h, 5x P. falciparum 3D7-IC50, % of RBCs, mean of 2 experiments
[14] = Babesia divergens, 72h, asynchronous, n=3 experiments (or 2 where indicated with *)
[15] = Plasmodium falciparum, 3D7, 72h, ring-stage, n=3 experiments (or 2 where indicated with *)
[16] = Plasmodium falciparum, DD2, 72h, ring-stage, n=3 experiments (or 2 where indicated with *)

| Structure (SMILES) | Phosphatidylserine exposure (%) 48h (uninfected RBCs [3]) [%] | Phosphatidylserine exposure (%) 72h (uninfected RBCs [3]) [%] | hemolysis at 24 h, 5 x P. falciparum 3D7-IC50 (in vitro; [8]) [%] | hemolysis at 48 h, 5 x P. falciparum 3D7-IC50 (in vitro; [8]) [%] | hemolysis at 72 h, 5 x P. falciparum 3D7-IC50 (in vitro; [8]) [%] | IC50 ([2]; Babesia divergens, 72 h) [µM] | IC50 (P. falciparum strain 3D7; [9]) [µM] | IC50 (P. knowlesi YH1 strain; Plasmodium knowlesi, 48 h) [µM] | IC50 (P. falciparum strain Dd2; [10]) [µM] | Phosphatidylserine exposure (%) 24h (uninfected RBCs [3]; [11]) [%] | Phosphatidylserine exposure (%) 48h (uninfected RBCs [3]; [12]) [%] | Phosphatidylserine exposure (%) 72h (uninfected RBCs [3]; [13]) [%] | other results |
| --- | --- | --- | --- | --- | --- | --- | --- | --- | --- | --- | --- | --- | --- |
| [Cl][Au]([Cl])[Cl].c1cnc2c(c1)ccc1cccnc12 [Auphen] | 10. | 24 | – | – | – | – | – | – | – | – | – | – | Hemolysis (%) 24h (uninfected RBCs [1]): -7%; Hemolysis (%) 48h (uninfected RBCs [1]): 5%; Hemolysis (%) 72h (uninfected RBCs [1]): 10. %; IC50 ([2]; 72h, asynchronous, n=3 experiments (or 2 where indicated with *)): 2.8 µM; IC50 (P. falciparum strain 3D7; [7]): 1.1 µM; IC50 (P. knowlesi YH1 strain; 48h, ring-stage, n=3 experiments (or 2 where indicated with *)): 2 µM; IC50 (AQP3): 0.8 µM; IC50 (P. falciparum strain Dd2; [7]): 0.61 µM; Phosphatidylserine exposure (%) 24h (uninfected RBCs [3]): 3% |
| COc1ccc2c(c1)c(C1=C(c3c[nH]c4ccccc34)C(=O)NC1=O)cn2CCCN(C)C [Go6983] | – | 4 | -7 | 5 | 12 | 0.5 | 2 | 4 | 2 | 2 | 2 | – | IC50 [4]: 0.1 µM; fold lower IC50s against B. divergens than the Plasmodium spp. [2]: at least 3 fold |
| Clc1cccc(Cl)c1CSc1nnc(-c2cnccn2)s1 [Yoda1] | – | – | 7 | 38 | 57 | 1.11 | 4.2 | 7 | 6 | – | 100. | 100. | hemolysis of RBCs, in words (uninfected RBCs [1]; 5x P. falciparum 3D7-IC50, 24, 48, 72h): rapid onset of hemolysis comparable to control compound A23187; fold lower IC50s against B. divergens than the Plasmodium spp. [2]: at least 3 fold; IC50 (sickle RBCs): ~2 µM; antimalarial activity retained after transient exposure of RBCs, relative to continuous exposure to inhibitor (P. falciparum (3D7)): ≥ 80%; inhibitory activity following transient exposure of RBCs, in words (P. falciparum (3D7)): statistically indistinguishable from inhibition with continued exposure |
| CNC(=O)c1cc(Oc2ccc(NC(=O)Nc3ccc(Cl)c(C(F)(F)F)c3)cc2)ccn1 [Sorafenib] | 12 | 21 | – | – | – | – | – | 5 | – | – | – | – | hemolysis at 24 h, 5 x P. falciparum 3D7-IC50 (in vitro): -6%; hemolysis at 48 h, 5 x P. falciparum 3D7-IC50 (in vitro): 16%; hemolysis at 72 h, 5 x P. falciparum 3D7-IC50 (in vitro): 15%; IC50 [2, 14]: 2 µM; IC50 (P. falciparum strain 3D7; [15]): 4.9 µM; IC50 (P. falciparum strain Dd2; [16]): 4 µM; Phosphatidylserine exposure (%) 24h (uninfected RBCs [3]): 7%; IC50 (RBC; RBC assay: PS exposure ref PMID 22907570): > 10 µM |
| CN(C)CCOc1ccc(-c2nc(-c3ccncc3)c(-c3ccc4c(c3)CC/C4=N\O)[nH]2)cc1 [SB590885] | – | – | -4 | 4 | 11 | 4 | 0.7 | 1.4 | 1 | 2 | 2 | 4 | IC50 (human epithelial cells): 1.1 to 6.1 µM |
| Oc1ccc2ccccc2c1SSc1c(O)ccc2ccccc12 [IPA-3] | – | – | -14 | 11 | 30 | 15 | 5 | 4 | 5 | 29 | 35 | 35 | antimalarial activity retained after transient exposure of RBCs, relative to continuous exposure to inhibitor (P. falciparum (3D7)): ≥ 80%; inhibitory activity following transient exposure of RBCs, in words (P. falciparum (3D7)): statistically indistinguishable from inhibition with continued exposure; IC50 (RBC; RBC assay: PS exposure ref PMID 21214270): < 5 µM |
| CN1CCN(c2nc(C3=C(c4c[nH]c5ccccc45)C(=O)NC3=O)c3ccccc3n2)CC1 [Sotrastaurin] | – | – | -7 | 9 | 17 | – | – | 5 | – | 2 | 2 | 4 | IC50 [2, 14]: 10 µM; IC50 (P. falciparum strain 3D7; [15]): 5 µM; IC50 (P. falciparum strain Dd2; [16]): 3 µM; IC50 [5]: 0.09 µM |
| N#CC(=C(N)Sc1ccccc1N)C(C#N)=C(N)Sc1ccccc1N [U0126] | 4 | 9 | – | – | – | 30 | 5.3 | 20 | 3.9 | 2 | – | – | IC50 [6]: 0.293 µM; hemolysis at 24 h, 5 x P. falciparum 3D7-IC50 (in vitro): 3%; hemolysis at 48 h, 5 x P. falciparum 3D7-IC50 (in vitro): 9%; hemolysis at 72 h, 5 x P. falciparum 3D7-IC50 (in vitro): 20%; IC50 (HCT-116): 19.4 µM |
